Consider nine molecules from patent US5847160A, “Acetylenes disubstituted with 2-tetrahydropyranoxy-aryl and aryl of heteroaryl groups having retinoid-like biological activity” (Allergan, priority 1997, dated 1998).

The structures appear in SMILES notation.

For the first experiment, the system named is ornithine decarboxylase (ODC). Nature of the experiment: ODC assay: inhibition of TPA induction of ODC activity. In kind it is in vivo. To be noted: at conc 30 (nmol); TPA-induced ODC. The text has this:
The retinoic acid-like activity of these compounds is confirmed through the classic measure of retinoic acid activity involving the effects of retlnoic acid on ornithine decarboxylase. The original work on the correlation between retinoic acid and decrease in cell proliferation was done by Verma & Boutwell, Cancer Research, 1977, 37,2196-2201. That reference discloses that ornithine decarboxylase (ODC) activity increased precedent to polyamine biosynthesis. It has been established elsewhere that increases in polyamine synthesis can be correlated or associated with cellular proliferation. Thus, if ODC activity could be inhibited, cell hyperproliferation could be modulated. […] Activity of exemplary compounds of the present invention in the above- described ODC assay is disclosed in Table 2 which provides either IC80 (or other measured per cent inhibition at the indicated concentration) for the respective exemplary compound.
Consider `CCOC(=O)c1ccc(C#Cc2ccc(OC3CCCCO3)c(C34CC5CC(CC(C5)C3)C4)c2)cc1` (stereo not drawn) [Compound 9], for which the “% of inhib” value turned out to be 49%.

Regarding `COC(=O)c1ccc(C#Cc2ccc(OC3CCCCO3)c(C34CC5CC(CC(C5)C3)C4)c2)cc1` (stereo not drawn) [Compound 25], the “% of inhib” value was found to be 61%.

The same experiment, now with this note: at conc 300 (nmol); TPA-induced ODC.
Take `O=C(O)c1ccc(C#Cc2ccc(OC3CCCCO3)cc2)nc1` (stereo not drawn) [Compound 15, 6-[2-[[1-(2-tetrahydropyranoxy)]-4-phenyl]ethyn-1-yl]nicotinic acid]: the “% of inhib” value was 44%.

In the case of `CCOC(=O)c1ccc(C#Cc2cccc(OC3CCCCO3)c2)nc1` (stereo not drawn) [Compound 16, Ethyl 6-[2-[[1-(2-tetrahydropyranoxy)]-3-phenyl]ethyn-1-yl]nicotinate], the “% of inhib” value is reported as 52%.

In the case of `CCOC(=O)c1ccc(C#Cc2ccc(C34CC5CC(CC(C5)C3)C4)c(OC3CCCCO3)c2)nc1` (stereo not drawn) [Compound 17], the “% of inhib” value was 68%.

Regarding `CCOC(=O)c1ccc(C#Cc2ccc(C34CC5CC(CC(C5)C3)C4)c(OC3CCCCO3)c2)cc1` (stereo not drawn) [Compound 18, Ethyl 4-[2-[[2-(1-adamantyl)-1-(2-tetrahydropyranoxy)]-5-phenyl]ethyn-1-yl]benzoate], the “% of inhib” value stood at 45%.

For the molecule `O=C(O)c1ccc(C#Cc2ccc(C34CC5CC(CC(C5)C3)C4)c(OC3CCCCO3)c2)nc1` (stereo not drawn) [Compound 19], the “% of inhib” value was determined as 45%.

Another experiment deals with ornithine decarboxylase (ODC).
Assay: not given
To be noted: general knowledge; cited from earlier work.
For `CCCCCCCCCCCCCC(=O)O[C@@H]1[C@@H](C)[C@@]2(O)[C@@H](C=C(CO)C[C@]3(O)C(=O)C(C)=C[C@@H]23)[C@@H]2C(C)(C)[C@]12OC(C)=O` [12-0-tetradecanoylphorbol-13-acetate], the “effect on ODC activity” value is on record as “induces ODC activity”.

Regarding `CC1=C(/C=C/C(C)=C/C=C/C(C)=C/C(=O)O)C(C)(C)CCC1` [Retinoic acid], the “effect on ODC activity” value is “inhibits this induction of ODC activity by TPA”.
